Data on two compounds can be found in patent US20130344166A1, “TOPICAL MIXTURE AND METHOD FOR DERMAL APPLICATION TO REMOVE EXCESS IRON AND OTHER HEAVY METALS FROM CELLULAR TISSUE” (priority 2012, published 2013).

Assay [1] is described as follows: Blood sugar level of a patient after application of the topical mixture to the skin. The assay is classed as in vivo, human. The note with it: presence of L-Histidine in the mixture. The text has this: The present invention is best practiced by application of the trivalent Chromium composition at least twice daily. Preferably the application will be made before sleep and early in the morning ideally before exercise. Although the present invention may be applied to the entire body it is recommended it be applied to the legs and groin area where easy access to a large number of blood vessels can be achieved. Additionally, the legs and groin area contained some of the most exercised muscles in the human body. An alternative carrier base can be achieved through infusion of the trivalent Chromium and other elements into a bar of soap so as to achieve even distribution over the entire body. FIGS. 1 and 2 and the charts below show the blood sugar level of a patient utilizing the present invention in accordance with the formulation set above. The blood sugar level can be seen to drop dramatically after application of the present invention to the surface of the skin.

The test system of assay [2] is excess Iron within the cells. Kind of assay: Tests of trivalent Chromium on excess Iron within the cells of humans. It is filed as in vivo. The note with it: absorbed into the bloodstream and delivered to the individual cells of humans. The text has this:
Also included in the present invention is trivalent Chromium. As currently contemplated, the Chromium will be in the form of Chromium Picolinate, Chromium Polynicotinate, or Chromium Chloride. The essential element is trivalent Chromium. The choice of Chromium Picolinate, Chromium Polynicotinate, or Chromium Chloride has been made by the inventors because they are readily, commercially available in most health food stores, pharmacies, and other sources of dietary supplements. […] This is a desirable treatment for people suffering from Diabetes and there are currently studies, which indicate that “Iron Loading” can possibly be attached to the occurrence of cancer. A possible alternative or compliment to the Chromium of the present invention is Vanadium in the form of Vanadyl Sulfate. A combination of both Chromium and Vanadium compounds have been utilized in some tests with desirable results.

Turning to `N[C@@H](Cc1c[nH]cn1)C(=O)O` [L-Histidine], the “levels of blood sugar in patients” value in assay [1] is reported as “beneficial to lowering the levels of blood sugar”.
trivalent Chromium: in assay [2], the “levels of excess Iron within the cells” value was “reduces the levels of excess Iron within the cells”.
